Data on 22 molecules can be found in PubChem BioAssay (NCI).

Molecules are shown by their SMILES.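 The compound was tested at five concentrations on cells cultured in 96-well plates, with a 48-hour exposure period. Here, GI50 denotes the concentration required for 50% inhibition of growth. TGI: total growth inhibition.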

What all share (experiment): NCI-60 cell line screen, 48 h
The test system of assay [1] is SF-268 CNS.
Assay [2] has as its system NCI-H460 lung.
Assay [3] deals with HL-60(TB) leukemia.
Assay [4] deals with KM12 colon.
Assay [5] concerns RPMI-8226 leukemia.
The test system of assay [6] is U251 CNS.
For assay [7], the system named is EKVX NSCLC.
Assay [8] relates to SR leukemia.
The test system of assay [9] is A549 NSCLC.
Assay [10] concerns CAKI-1 renal.

In the case of `[Cl-].[La+3].[O-]/N=C(\c1ccccc1)c1ccccn1.[O-]/N=C(\c1ccccc1)c1ccccn1.[O-]/N=C(\c1ccccc1)c1ccccn1`, the GI50 in [1] is 46 µM; in assay [2], 15 µM; in [3], 33.5 µM; in assay [4], 82 µM; in assay [5], 62.1 µM; in [6], 32 µM. The GI50 in [7] was 40.6 µM; in [8], 36.5 µM; in assay [9], 41.8 µM; in assay [10] it was 48.4 µM. Besides, the TGI in assay [1] is greater than 100 µM; in assay [2], greater than 69.2 µM; in assay [3], greater than 100 µM; in assay [4], greater than 100 µM; in assay [5] it was greater than 100 µM; in [6], greater than 100 µM. Moreover, the TGI is greater than 89.5 µM in assay [7], greater than 100 µM in [8], greater than 100 µM in assay [9] and greater than 91.2 µM in assay [10].
Consider `Cn1c2ccccc2c2cc(-c3ccccc3)c3c(c21)C(=O)c1ccccc1C3=O`, for which the TGI in [1] was found to be 91.8 µM; in [3] it was 35.9 µM; in [4], 75.8 µM; in [5], 25.3 µM; in assay [8], 31.4 µM; in assay [9], 79.1 µM. The molecule also registered a TGI in assay [10] greater than 100 µM.
In the case of `O=[N+]([O-])C(/C=C(\Cl)n1nnc2ccccc21)=C(/Cl)n1nnc2ccccc21`, the TGI in [1], in [2], in [4], in [5], in assay [6] and in assay [7] was greater than 100 µM in each case. For the same molecule, the TGI in [8], in assay [9] and in assay [10] was greater than 100 µM throughout.
For `O=S1(=O)OCCOS(=O)(=O)C1Br`, the TGI in [1], in [3], in [4], in assay [5], in assay [8] and in [9] was greater than 100 µM each time. In assay [10], this molecule had a TGI greater than 100 µM.
In the case of `CC(=O)OC1COC(n2ccc3cc(Br)c([N+](=O)[O-])cc32)C(OC(C)=O)C1OC(C)=O` (configuration not stated), the TGI in assay [1] is greater than 100 µM; in assay [2], 69.5 µM; in [4], greater than 100 µM; in assay [5] it was greater than 100 µM; in assay [6], 56 µM; in [7] it was greater than 100 µM. Further, the TGI is greater than 100 µM in [8], 92.3 µM in assay [9] and greater than 100 µM in assay [10].
As to `CN(C)c1ccc(/C=C(\NC(=O)c2ccccc2)c2nc3ncncc3[nH]2)cc1`, the TGI in [1], in [3], in assay [4], in assay [6], in [7] and in assay [8] was greater than 100 µM throughout. Also, the TGI in [9] and in assay [10] was greater than 100 µM in each case.
On to `COc1ccc(-c2nnc(COc3ccc(C(=O)/C=C/c4ccco4)cc3)o2)cc1`, for which the GI50 in assay [1] is 2.76 µM; in [2], 3.66 µM; in assay [3] it was 2.65 µM; in assay [4] it was 1.75 µM; in [5], 2.13 µM; in assay [6] it was 1.62 µM. The GI50 is 1.52 µM in [8], 3.33 µM in [9] and 6.11 µM in assay [10]. The TGI worked out at 8.25 µM in [1]; 14 µM in [2]; 7.38 µM in assay [3]; 3.62 µM in [4]; 5.94 µM in [5]; 3.08 µM in [6]. Further, the TGI in assay [8] was found to be 7.28 µM; in assay [9], 13.8 µM; in assay [10], 19.7 µM.
Turning to `C=C1C(=O)O[C@H]2[C@H]1CC/C(COC(=O)c1c[nH]c3ccccc13)=C\CC[C@@]1(C)O[C@@H]21`, the GI50 in assay [1] was 0.294 µM; in [2], 1.1 µM; in assay [3], 0.278 µM; in assay [4] it was 0.477 µM; in assay [5], 0.0404 µM; in assay [6], 0.616 µM. Also, the GI50 in assay [7] was 0.315 µM; in assay [8], 0.285 µM; in assay [9], 1.5 µM. The TGI came out at 1.07 µM in assay [1]; 3.18 µM in assay [2]; 0.789 µM in assay [3]; 2.36 µM in [4]; 0.281 µM in [5]; 1.93 µM in assay [6]. In addition, the figures for the TGI in assay [7], in assay [8] and in [9] were 2.01 µM, 1.33 µM and 3.3 µM, respectively.
For `C#CC1(O)CCC2C3CCc4cc(Oc5nc(F)nc(-c6c7ccccc7c7sc8ccccc8n67)n5)ccc4C3CC[C@@]21C` (some centres not stated), the TGI in assay [1], in assay [2], in [3], in [4], in assay [5] and in [6] was greater than 100 µM in each case. For the same molecule, the TGI in assay [8], in [9] and in assay [10] was greater than 100 µM each time.
On to `Cc1c2c(nn1-c1ccc(S(=O)(=O)/N=C3\SCCC(=O)N3c3ccccc3)cc1)-c1ccccc1CC2`, for which the GI50 in assay [1] was 35 µM; in assay [2], greater than 100 µM; in [3], greater than 100 µM; in [4], greater than 100 µM; in assay [6], greater than 100 µM; in [7] it was 94 µM. Further, the GI50 in assay [8] was 65 µM; in assay [9] it was greater than 100 µM; in [10], greater than 100 µM. The TGI in assay [1], in [2], in [3], in assay [4], in [6] and in assay [7] was greater than 100 µM throughout. Moreover, the TGI in assay [8], in [9] and in assay [10] was greater than 100 µM each time.
With `C/C(=N\NC(=S)NC(CCC(=O)O)C(=O)O)c1ccccn1` (configuration not stated), the TGI in assay [1], in assay [2], in assay [3], in [4], in assay [5] and in [6] was greater than 100 µM each time. The TGI in [7], in assay [8] and in [9] was greater than 100 µM throughout.
In the case of `Cc1ccccc1S(=O)(=O)OC1NS(=O)(=O)c2ccccc21` (configuration not stated), the TGI in [1], in assay [2], in [4], in [5], in [6] and in [7] was greater than 100 µM in each case. The TGI in [8], in assay [9] and in [10] was greater than 100 µM each time.
With `CCN1CCN(c2nc(C)cc(N(CCNc3ccnc4cc(Cl)ccc34)Cc3ccc4c(c3)OCO4)n2)CC1`, the GI50 in assay [1] was 2.09 µM; in assay [2] it was 1.94 µM; in assay [3], 2.1 µM; in assay [4] it was 3.97 µM; in assay [5] it was 1.31 µM; in [6], 1.56 µM. Further, the GI50 was 3.14 µM in assay [7], 1.33 µM in assay [8] and 2.4 µM in assay [9]. Also, the TGI in assay [1] is 5.81 µM; in [2], 4.7 µM; in [3], 4.22 µM; in assay [4], 15.2 µM; in assay [5], 3.76 µM; in assay [6] it was 3.12 µM. Moreover, the TGI in assay [7] worked out at 13.9 µM; in assay [8], 3.71 µM; in assay [9], 8.19 µM.
On to `Cc1cc(-c2ccc3nc(C4CCOCC4)n(CCOC(F)(F)F)c3c2)cn(C)c1=O`, for which the GI50 in assay [1] is 1.65 µM; in assay [2], 1.06 µM; in assay [3], 0.0247 µM; in assay [4] it was 0.724 µM; in [5], 0.13 µM; in assay [6] it was 1.02 µM. The GI50 in assay [7] is 0.761 µM; in [8], 0.597 µM; in [9], 0.48 µM. Moreover, the TGI in [1] is 80.2 µM; in assay [3] it was 0.197 µM; in [4], 11.4 µM; in assay [5] it was greater than 31.6 µM; in assay [7], greater than 100 µM; in assay [8], 13.4 µM.
Regarding `COc1cc2c3c(n(C)c(=O)c2cc1OC)-c1cc2c(cc1/C3=C\CCN)OCO2`, the GI50 was 0.167 µM in assay [1]; 0.0147 µM in assay [2]; 0.236 µM in assay [3]; 0.426 µM in assay [4]; 0.061 µM in assay [5]; 0.16 µM in [6]. The GI50 in assay [7] was 1.71 µM; in assay [9], 0.165 µM; in assay [10], 0.112 µM. Further, the TGI in [1] stood at 16.6 µM; in [2] it was 1.81 µM; in [3], 1.52 µM; in [4], 2.11 µM; in [5], 0.975 µM; in assay [6], 22.8 µM. Further, the values for the TGI in assay [7], in assay [9] and in [10] were 13.5 µM, 4.44 µM and 3.02 µM, respectively.
Consider `COc1cc(OC)cc(-c2cc(=O)c3c(OC)c(OC)c(OC)c(OC)c3o2)c1`, for which the TGI in assay [1], in assay [2], in assay [3], in assay [5], in assay [6] and in [7] was greater than 100 µM throughout. The TGI in assay [8], in assay [9] and in assay [10] was greater than 100 µM each time.
For `C[C@@H]1CCC2[C@@H](C)[C@@H](OCC(CO[C@H]3OC4O[C@@]5(C)CC[C@H]6[C@H](C)CCC([C@H]3C)[C@@]46OO5)OC(=O)CCC(=O)O)OC3O[C@@]4(C)CC[C@@H]1[C@]32OO4` (some centres not stated), the TGI in [1] was 20.1 µM; in [2], 15.8 µM; in assay [3], 0.513 µM; in assay [5], 16.5 µM; in [6], 24.5 µM; in assay [7], 41 µM. Further, the TGI in assay [9] worked out at 32.6 µM; in assay [10] it was 0.477 µM. Moreover, the GI50 in assay [2] was less than 0.0183 µM; in assay [3], 0.0111 µM; in assay [4], less than 0.01 µM; in assay [5], less than 0.01 µM; in assay [6], less than 0.01 µM; in [7], 3.03 µM. The GI50 was 0.971 µM in assay [9] and 0.022 µM in assay [10].
On to `C[Si](C)(C)C1(Sc2ccccc2)SCCCS1`, for which the TGI is greater than 100 µM in assay [1]; greater than 100 µM in [2]; 33.3 µM in assay [3]; greater than 100 µM in [4]; greater than 100 µM in [5]; greater than 100 µM in assay [6]. Moreover, the TGI in assay [7], in assay [9] and in assay [10] was greater than 100 µM in each case.
As to `COc1cc(/C=C2\CN(S(=O)(=O)c3ccccc3)C/C(=C\c3cc(CN4CCCC4)c(O)c(OC)c3)C2=O)cc(CN2CCCC2)c1O`, the GI50 in [1] is 1.45 µM; in assay [3], 0.513 µM; in assay [5] it was 1.55 µM; in [7], 1.14 µM; in [8], 0.458 µM; in assay [9], 3.61 µM. In addition, the GI50 in assay [10] was 1.83 µM. Further, the TGI in assay [1] is 4.06 µM; in assay [3], 2.73 µM; in assay [5], 5.03 µM; in [7], 3.53 µM; in assay [8] it was greater than 100 µM; in assay [9] it was greater than 100 µM. The TGI in [10] worked out at 5.21 µM.
As for `Cc1cc(O)c(/C=N/C(=S)NCc2ccccc2)c(=O)o1`, the TGI in assay [1], in assay [2], in assay [3], in assay [4], in assay [6] and in assay [7] was greater than 100 µM each time. Further, the TGI in assay [8], in [9] and in assay [10] was greater than 100 µM in each case.
Regarding `CCOC(=O)c1cc2nc3ccccc3c(=O)n2c2ccccc12`, the TGI in assay [1], in assay [2], in assay [3], in assay [4], in [5] and in assay [6] was greater than 10 µM each time. The TGI in assay [7], in assay [9] and in [10] was greater than 10 µM in each case.
Turning to `CC(C)=Cc1cc(C(=O)Nc2ccc(Cl)c(Cl)c2)nc(N)n1`, the TGI in assay [1], in [2], in assay [3], in assay [4], in assay [5] and in [6] was greater than 100 µM in each case. For the same molecule, the TGI in assay [7], in assay [9] and in assay [10] was greater than 100 µM in each case.
